Measurements taken from patent US7572783B2 (Amgen Inc., priority 2004, dated 2009).

Target: T1, human GHSR1a (Homo sapiens, UniProt Q92847)
T1 construct: expressed in transfected cells
Test: Aequorin luminescent functional assay (intracellular Ca2+, ghrelin-stimulated)
Conditions: stable cell line expressing human GHSR1a and apoaequorin; final ghrelin 3x EC50 (20 nM); read-out: Class (based on IC50 values)
Description: IC50 values of inventive compounds may be assessed as follows. An aequorin (Euroscreen) luminescent assay (Stabels et al., 1997) measuring the intracellular Ca^2+ concentration was used as the functional assay to evaluate the potency of the compounds. A stable cell line, expressing human GHSR1a and apoaequorin in mitochondria was used in the aequorin assay. 5×10^6 cells per mL were incubated at room temperature in HyClone Media (Perbio) supplemented with 2 μM coelenterazine (Molecular Probes). After 2 hrs cells were diluted to 1×10^6 cells per ml in HyClone Medium.
50 μL of the cell suspension was added to each well of a 96-well plate containing 50 μL of compound, diluted in HyClone Medium. The cell suspension/compound mixture was incubated for 30 seconds before 50 μL of a 9× EC50 concentrations of a human ghrelin solution, in HyClone Medium, was injected. The final Ghrelin concentration was 3× EC50 (20 nM). Aequorin luminescence elicited by intracellular Ca^2+ in the cells was recorded for a total of 60 seconds with a microplate luminometer (Microlumate, Berthold). IC50 of the compounds in this assay was calculated with Prism 4.

T1 sequence (Q92847 whole entry): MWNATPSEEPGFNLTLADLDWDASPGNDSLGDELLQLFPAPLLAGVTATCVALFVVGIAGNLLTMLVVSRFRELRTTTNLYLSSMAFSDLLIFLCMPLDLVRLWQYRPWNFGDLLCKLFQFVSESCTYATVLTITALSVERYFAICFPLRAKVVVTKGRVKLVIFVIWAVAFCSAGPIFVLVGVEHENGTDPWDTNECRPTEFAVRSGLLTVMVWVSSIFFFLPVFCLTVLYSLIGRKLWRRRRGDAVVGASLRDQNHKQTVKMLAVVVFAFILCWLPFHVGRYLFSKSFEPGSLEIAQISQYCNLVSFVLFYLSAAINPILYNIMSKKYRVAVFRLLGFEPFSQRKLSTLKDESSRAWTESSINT

| IC50 [nM] | Structure (SMILES) |
| --- | --- |
| ≤ 10 | O=C1c2cc(Oc3ccc(F)cc3F)ccc2CCN1[C@@H](c1cccc(CNCC(F)F)n1)C1CC1 [(R)-2-(cyclopropyl(6-((2,2-difluoroethylamino)methyl)pyridin-2-yl)methyl)-7-(2,4-difluorophenoxy)-3,4-dihydroisoquinolin-1(2H)-one] |
| 10 to 50 | CC(C)C(C(=O)N1CCC(NC2CC2)CC1)N1CC(=O)Nc2ccc(Oc3ccccc3C(C)(C)C)cc2C1=O (stereo not shown) [7-(2-tert-butyl-phenoxy)-4-[1-(4-cyclopropylamino-piperidine-1-carbonyl)-2-methyl-propyl]-3,4-dihydro-1H-benzo[e][1,4]diazepine-2,5-dione] |
| ≤ 10 | CC(C)C(C(=O)N1CCC(NCc2ccc(F)cc2)CC1)N1CC=Cc2ccc(Oc3ccc(F)cc3F)cc2C1=O (stereo not shown) [8-(2,4-difluoro-phenoxy)-2-{1-[4-(4-fluoro-benzylamino)-piperidine-1-carbonyl]-2-methyl-propyl}-2,3-dihydro-benzo[c]azepin-1-one] |
| 50 to 500 | CC(C)C(COC(=O)NC1CCN(Cc2ccc(F)cc2)CC1)N1CC(=O)Nc2ccc(Oc3ccc(F)cc3)cc2C1=O (stereo not shown) [[1-(4-Fluoro-benzyl)-piperidin-4-yl]-carbamic acid 2-[7-(4-fluoro-phenoxy)-2,5-dioxo-1,2,3,5-tetrahydro-benzo[e][1,4]diazepin-4-yl]-3-methyl-butyl ester] |
